Assay results reported in patent US12421205B2, “GLP-1 receptor agonist” (HYUNDAI PHARM CO., LTD., priority 2019, dated 2025).

What was measured:
hERG = target: T1, hERG (Homo sapiens, UniProt Q12809); assay: hERG inhibition test (Predictor hERG Fluorescence Polarization assay kit); assay type: binding; conditions: probe kit Tracer (fluorescent hERG ligand), hERG % inhibition at 10 uM, relative to E-4031 and solvent control
T1 construct: purchased Invitrogen PV5365
In short: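 Competitive fluorescence-polarization binding of fluorescent tracer to hERG membrane preparation, 2.5 h at room temperature, mP read at 531/579 nm. % inhibition at 10 uM test compound, scaled between solvent control (0%) and E-4031 (100%).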

human GLP-1 receptor = target: T2, human GLP-1 receptor (Homo sapiens, UniProt P43220); assay: cAMP activity test (cAMP dynamic HTRF kit) in CHO-K1/GLP-1 receptor-expressing cells; assay type: cell-based; conditions: cAMP activity, CHO-K1/GLP-1 receptor-expressing cells; read-out: EC50
T2 construct: host or cells: CHO-K1
In short: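 Cells in HBSS with 0.1% BSA, 0.5 mM IBMX and 5 mM HEPES, then lysed; cAMP-d2 and anti-cAMP cryptate added for 3 h. HTRF read-out, where FRET signal is inversely proportional to intracellular cAMP.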

T2 sequence (P43220 24-463): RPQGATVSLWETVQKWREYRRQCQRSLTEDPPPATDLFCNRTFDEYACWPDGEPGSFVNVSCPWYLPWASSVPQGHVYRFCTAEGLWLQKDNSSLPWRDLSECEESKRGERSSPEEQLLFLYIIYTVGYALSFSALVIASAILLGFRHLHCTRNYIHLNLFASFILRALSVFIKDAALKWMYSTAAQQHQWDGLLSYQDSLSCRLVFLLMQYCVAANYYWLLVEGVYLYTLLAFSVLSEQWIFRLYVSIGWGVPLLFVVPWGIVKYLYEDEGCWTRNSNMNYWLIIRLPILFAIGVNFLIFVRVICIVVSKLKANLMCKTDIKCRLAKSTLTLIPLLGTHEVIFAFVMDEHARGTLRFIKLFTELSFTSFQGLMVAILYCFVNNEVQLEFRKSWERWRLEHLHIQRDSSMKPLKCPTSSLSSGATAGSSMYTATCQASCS
T1 sequence (Q12809 whole entry): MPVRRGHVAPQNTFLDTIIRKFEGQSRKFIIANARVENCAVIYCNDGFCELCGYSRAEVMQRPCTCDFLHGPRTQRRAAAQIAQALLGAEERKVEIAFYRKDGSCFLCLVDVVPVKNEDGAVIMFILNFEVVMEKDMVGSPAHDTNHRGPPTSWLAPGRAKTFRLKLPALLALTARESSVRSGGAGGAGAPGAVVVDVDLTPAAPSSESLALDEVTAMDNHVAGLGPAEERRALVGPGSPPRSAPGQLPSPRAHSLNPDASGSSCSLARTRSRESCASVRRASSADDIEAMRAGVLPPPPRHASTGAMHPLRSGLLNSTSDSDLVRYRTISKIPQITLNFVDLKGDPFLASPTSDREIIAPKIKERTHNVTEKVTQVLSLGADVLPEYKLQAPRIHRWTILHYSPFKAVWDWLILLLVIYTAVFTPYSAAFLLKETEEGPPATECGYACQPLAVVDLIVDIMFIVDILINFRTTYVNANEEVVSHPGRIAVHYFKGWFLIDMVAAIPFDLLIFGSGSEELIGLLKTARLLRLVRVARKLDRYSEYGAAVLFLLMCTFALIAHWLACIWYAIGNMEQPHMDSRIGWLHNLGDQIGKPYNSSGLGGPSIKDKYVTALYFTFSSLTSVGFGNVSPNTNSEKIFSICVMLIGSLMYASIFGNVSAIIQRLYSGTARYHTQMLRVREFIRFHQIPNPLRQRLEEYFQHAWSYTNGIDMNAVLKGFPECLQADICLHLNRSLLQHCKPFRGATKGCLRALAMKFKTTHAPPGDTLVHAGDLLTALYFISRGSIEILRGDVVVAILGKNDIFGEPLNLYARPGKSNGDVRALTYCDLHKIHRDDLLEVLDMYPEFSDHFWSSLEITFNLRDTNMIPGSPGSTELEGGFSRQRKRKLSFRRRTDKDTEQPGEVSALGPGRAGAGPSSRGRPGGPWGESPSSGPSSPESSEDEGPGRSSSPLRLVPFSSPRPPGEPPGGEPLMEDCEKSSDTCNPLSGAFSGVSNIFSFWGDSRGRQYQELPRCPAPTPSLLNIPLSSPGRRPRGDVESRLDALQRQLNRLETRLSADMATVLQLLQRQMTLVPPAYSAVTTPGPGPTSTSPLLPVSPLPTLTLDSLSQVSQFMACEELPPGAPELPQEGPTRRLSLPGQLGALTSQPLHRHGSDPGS

Question: What does the source list for O=C(O)c1ccc2nc(Cn3ccc(-c4cccc(OCc5ccc(Cl)cc5F)n4)cc3=O)n(CC3CCCO3)c2c1 (centres unmarked) [Example 105, 2-((4-(6-(4-chloro-2-fluorobenzyloxy)pyridin-2-yl)-2-oxopyridin-1(2H)-yl)methyl)-1-((tetrahydrofuran-2-yl)methyl)-1H-benzo[d]imidazole-6-carboxylic acid]?
Answer: inhibition at 2.5 h, 10 µM (hERG): 25.1%; EC50 (human GLP-1 receptor): 46 nM

Question: Which inhibition at 2.5 h, 10 µM (hERG) does the source give for Cc1cc(-c2cccc(OCc3ccc(Cl)cc3F)n2)ccc1Cc1nc2ccc(C(=O)O)cc2n1CC1CCCO1 (centres unmarked) [Example 69, 2-(4-(6-(4-chloro-2-fluorobenzyloxy)pyridin-2-yl)-2-methylbenzyl)-1-((tetrahydrofuran-2-yl)methyl)-1H-benzo[d]imidazole-6-carboxylic acid] here?
Answer: -14.7%

Question: What about the EC50 (human GLP-1 receptor) of the same molecule?
Answer: 31 nM

Question: What does the source list for O=C(O)c1ccc2nc(Cc3ccc(-c4cccc(OCc5ccc(Cl)cc5F)n4)cc3)n(Cc3ccco3)c2c1 [Example 12, 2-(4-(6-(4-chloro-2-fluorobenzyloxy)pyridin-2-yl)benzyl)-1-(furan-2-ylmethyl)-1H-benzo[d]imidazole-6-carboxylic acid]?
Answer: inhibition at 2.5 h, 10 µM (hERG): -2.74%; EC50 (human GLP-1 receptor): 85 nM

Question: Which results are given for Cc1cc(-c2cccc(OCc3ccc(Cl)cc3F)n2)ccc1Cc1nc2ccc(C(=O)O)cc2n1C[C@@H]1CCO1 [Example 134, (S)-2-(4-(6-((4-chloro-2-fluorobenzyl)oxy)pyridin-2-yl)-2-methylbenzyl)-1-(oxetan-2-ylmethyl)-1H-benzo[d]imidazole-6-carboxylic acid]?
Answer: inhibition at 2.5 h, 10 µM (hERG): 28.3%; EC50 (human GLP-1 receptor): 190 nM

Question: O=C(O)c1ccc2nc(Cc3ccc(-c4cccc(OCc5ccc(Cl)cc5F)c4)c(F)c3)n(Cc3cnco3)c2c1 [Example 33, 2-((3′-(4-chloro-2-fluorobenzyloxy)-2-fluorobiphenyl-4-yl)methyl)-1-(oxazol-5-ylmethyl)-1H-benzo[d]imidazole-6-carboxylic acid] was tested. Which inhibition at 2.5 h, 10 µM (hERG) did it give?
Answer: -9.08%

Question: And the EC50 (human GLP-1 receptor)?
Answer: 60 nM

Question: What does the source list for Cc1cc(-c2cccc(OCc3ccc(C#N)cc3F)n2)ccc1Cc1nc2ccc(C(=O)O)cc2n1CC1CCCO1 (centres unmarked) [Example 68, 2-(4-(6-(4-cyano-2-fluorobenzyloxy)pyridin-2-yl)-2-methylbenzyl)-1-((tetrahydrofuran-2-yl)methyl)-1H-benzo[d]imidazole-6-carboxylic acid]?
Answer: inhibition at 2.5 h, 10 µM (hERG): -11.4%; EC50 (human GLP-1 receptor): 29 nM

Question: How did the inhibition at 2.5 h, 10 µM (hERG) turn out when O=C(O)c1ccc2nc(Cc3ccc(-c4cccc(OCc5ccc(Cl)cc5F)n4)cc3F)n(Cc3cccs3)c2c1 [Example 49, 2-(4-(6-(4-chloro-2-fluorobenzyloxy)pyridin-2-yl)-2-fluorobenzyl)-1-(thiophen-2-ylmethyl)-1H-benzo[d]imidazole-6-carboxylic acid] was run?
Answer: 12.5%

Question: What about the EC50 (human GLP-1 receptor) of the same molecule?
Answer: 14 nM
